Assay results: patent publication US20240209001A1, “HETEROCYCLIC DERIVATIVES AS JANUS KINASE INHIBITORS” (CHIESI FARMACEUTICI S.P. A., priority 2021, published 2024)

What was measured:
JAK 2 = JAK 2 (Homo sapiens (Human), UniProt O60674); assay: Biochemical potency on JAK2, TR-FRET LANCE Ultra kinase assay (compounds 1-92); conditions: ATP at Km, read-out: JAK2 inhibitory activity (pIC50 class) (converted)
Protocol: (§1) Biochemical Potency on JAK1, JAK2, JAK3 and Tyk2 Assay Principle The objective of this study was to assess the capability of compounds to inhibit all 4 JAK isoforms activity in a cell-free environment. Assay for JAK 1, JAK 2, JAK 3 and TYK2 were performed by Time-resolved fluorescence resonance energy transfer (TR-FRET) technology. It consists in the interaction of two labelled binding partners detected by the energy transfer from an excited donor to an acceptor dye and measurement of light emission by the acceptor dye. LANCE Ultra kinase assay was used. In presence of JAK 1, JAK 2, JAK 3 and TYK2 kinases and ATP (corresponding to Km), the ULight peptide substrate (LANCE Ulight-JAK-1 ([…]) Peptide, Perkin Elmer, TRF0121) is phosphorylated. It is then captured by Eu-anti-phospho-substrate antibody (LANCE Eu-W1024 Anti-phosphotyrosine (PT66), Perkin Elmer, AD0069), which bring the Eu-chelate donor and ULight acceptor dyes into close proximity. Upon excitation at 320 nm, the Eu-chelate transfers its energy to the ULight dye, resulting in a fluorescent light emission at 665 nm. Compound Testing Serial dilutions of compounds in pure DMSO are prepared from 10 mM DMSO stock solutions. Compounds were tested in 384-well plate for 11 consecutive 5-fold dilutions starting from 20 μM highest concentration (20 μM-[…]). 200 nL of compound were transferred from mother plate to test plate by using Mosquito (TTP labtech). Assay was performed in 384-well Perkin Elmer test plate in 20 μL assay volume (kinase reaction) and 40 μL total volume (stopping reagent and antibody detection reagents). In 10 μL of substrate solution (peptide+ATP) 30/50/20/10 nM of peptide and 20/0.7/0.2/12 μM of ATP were added for JAK 1, JAK 2, JAK 3 and TYK2 respectively. 10 μL of enzyme solution was added to kinase reaction at these concentrations: 0.15/0.083/0.025/0.144 ng/μL of JAK 1, JAK 2, JAK 3 and TYK2 respectively. After shaking and 1.5 h of incubation at r.t., 20 μL of Stop (10 μL EDTA) and Detection mixture (10 μL Europium-anti-phospho antibody, final: 0.5 nM) were added. Reading was performed after 1 h of incubation on a EnVision 2104 reader (Perkin Elmer). Calculation of IC50 data, curves and QC analysis was performed by using Excel tool and GraphPadPrism software, v9. Briefly, individual concentration-effect curves are generated by plotting the logarithm of the tested concentration of tested compounds (X) vs. corresponding percent inhibition values (Y) using least squares (ordinary) fit. Best fit IC50 values are calculated using Log(inhibitor) vs. normalized response-Variable slope equation, where Y=100/(1+10^((Log IC50-X)*HillSlope)). QC criteria parameters (Z', S:B, R2, HillSlope) were checked for every IC50 curve. Calculation of IC50 data, curves and QC analysis were made using Excel tools and GraphPadPrism software. QC criteria parameters: Z'≥0.5, Hill Slope range 0.5 to 5, S:B>2.

TYK2 = TYK2 (Homo sapiens (Human), UniProt P29597); assay: Biochemical potency on Tyk2, TR-FRET LANCE Ultra kinase assay (compounds 1-92); conditions: ATP at Km, read-out: Tyk2 inhibitory activity (pIC50 class) (converted)
Chain of TYK2 (P29597 whole entry): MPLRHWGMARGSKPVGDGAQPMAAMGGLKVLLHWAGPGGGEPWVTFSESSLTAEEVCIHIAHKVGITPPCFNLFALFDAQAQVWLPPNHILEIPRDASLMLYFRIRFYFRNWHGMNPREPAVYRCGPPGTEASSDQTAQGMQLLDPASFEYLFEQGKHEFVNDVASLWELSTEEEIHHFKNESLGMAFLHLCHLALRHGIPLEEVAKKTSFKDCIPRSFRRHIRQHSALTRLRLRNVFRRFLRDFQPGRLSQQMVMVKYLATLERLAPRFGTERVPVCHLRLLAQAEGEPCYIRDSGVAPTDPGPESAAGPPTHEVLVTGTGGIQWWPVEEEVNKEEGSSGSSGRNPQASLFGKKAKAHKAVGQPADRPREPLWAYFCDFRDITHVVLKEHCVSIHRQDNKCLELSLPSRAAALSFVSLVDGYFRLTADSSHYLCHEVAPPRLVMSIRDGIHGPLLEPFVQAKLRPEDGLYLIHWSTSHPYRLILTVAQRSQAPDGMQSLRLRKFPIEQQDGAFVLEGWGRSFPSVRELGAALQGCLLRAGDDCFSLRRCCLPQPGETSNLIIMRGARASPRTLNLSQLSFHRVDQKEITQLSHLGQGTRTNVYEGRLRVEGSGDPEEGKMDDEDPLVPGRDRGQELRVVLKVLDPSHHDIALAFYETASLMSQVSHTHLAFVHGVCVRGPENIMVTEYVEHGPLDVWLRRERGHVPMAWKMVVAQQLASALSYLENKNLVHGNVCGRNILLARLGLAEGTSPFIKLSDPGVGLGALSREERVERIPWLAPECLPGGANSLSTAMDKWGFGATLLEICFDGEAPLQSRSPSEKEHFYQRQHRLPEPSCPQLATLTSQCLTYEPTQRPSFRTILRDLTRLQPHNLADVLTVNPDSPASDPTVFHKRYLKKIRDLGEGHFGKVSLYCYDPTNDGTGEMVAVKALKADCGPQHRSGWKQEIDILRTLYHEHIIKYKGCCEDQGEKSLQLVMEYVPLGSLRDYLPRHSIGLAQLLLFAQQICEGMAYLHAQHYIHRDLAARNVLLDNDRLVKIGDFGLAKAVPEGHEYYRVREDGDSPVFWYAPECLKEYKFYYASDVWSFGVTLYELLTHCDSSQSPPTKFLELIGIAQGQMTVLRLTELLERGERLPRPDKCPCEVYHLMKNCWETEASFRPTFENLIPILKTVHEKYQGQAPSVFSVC
Protocol: as §1

JAK 3 = JAK 3 (Homo sapiens (Human), UniProt P52333); assay: Biochemical potency on JAK3, TR-FRET LANCE Ultra kinase assay (compounds 1-92); conditions: ATP at Km, read-out: JAK3 inhibitory activity (pIC50 class) (converted)
Chain of JAK 3 (P52333 whole entry): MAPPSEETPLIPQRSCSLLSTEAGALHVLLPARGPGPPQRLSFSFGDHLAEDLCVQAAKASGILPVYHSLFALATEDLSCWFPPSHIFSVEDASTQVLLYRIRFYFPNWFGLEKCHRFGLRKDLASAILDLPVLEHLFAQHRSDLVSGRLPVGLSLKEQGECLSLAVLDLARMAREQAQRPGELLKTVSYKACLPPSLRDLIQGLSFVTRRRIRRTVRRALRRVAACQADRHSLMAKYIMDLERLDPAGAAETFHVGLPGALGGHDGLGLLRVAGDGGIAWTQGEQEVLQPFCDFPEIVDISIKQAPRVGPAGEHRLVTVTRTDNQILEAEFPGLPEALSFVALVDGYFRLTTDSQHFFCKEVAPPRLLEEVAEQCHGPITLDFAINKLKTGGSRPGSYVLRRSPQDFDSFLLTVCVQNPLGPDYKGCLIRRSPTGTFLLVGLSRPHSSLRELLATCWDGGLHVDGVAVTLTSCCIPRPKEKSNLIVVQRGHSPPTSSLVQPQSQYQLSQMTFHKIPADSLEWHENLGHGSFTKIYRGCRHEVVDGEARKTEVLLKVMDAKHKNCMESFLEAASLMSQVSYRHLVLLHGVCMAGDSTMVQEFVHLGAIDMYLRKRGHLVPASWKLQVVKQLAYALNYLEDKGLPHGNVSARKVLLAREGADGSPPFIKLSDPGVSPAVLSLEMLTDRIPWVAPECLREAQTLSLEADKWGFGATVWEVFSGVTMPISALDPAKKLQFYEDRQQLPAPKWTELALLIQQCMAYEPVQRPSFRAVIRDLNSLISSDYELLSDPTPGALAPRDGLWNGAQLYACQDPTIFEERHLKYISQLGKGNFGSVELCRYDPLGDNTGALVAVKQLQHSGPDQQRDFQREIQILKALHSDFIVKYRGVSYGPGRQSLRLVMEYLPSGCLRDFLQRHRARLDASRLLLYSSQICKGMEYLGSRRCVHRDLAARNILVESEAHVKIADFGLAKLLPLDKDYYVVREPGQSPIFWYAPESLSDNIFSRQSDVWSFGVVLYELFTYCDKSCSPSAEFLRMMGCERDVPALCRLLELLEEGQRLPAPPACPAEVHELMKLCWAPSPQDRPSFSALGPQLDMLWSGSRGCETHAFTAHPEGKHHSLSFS
Protocol: as §1

JAK 1 = JAK 1 (Homo sapiens (Human), UniProt P23458); assay: Biochemical potency on JAK1, TR-FRET LANCE Ultra kinase assay (compounds 1-92); conditions: ATP at Km, read-out: JAK1 inhibitory activity (pIC50 class) (converted)
Chain of JAK 1 (P23458 whole entry): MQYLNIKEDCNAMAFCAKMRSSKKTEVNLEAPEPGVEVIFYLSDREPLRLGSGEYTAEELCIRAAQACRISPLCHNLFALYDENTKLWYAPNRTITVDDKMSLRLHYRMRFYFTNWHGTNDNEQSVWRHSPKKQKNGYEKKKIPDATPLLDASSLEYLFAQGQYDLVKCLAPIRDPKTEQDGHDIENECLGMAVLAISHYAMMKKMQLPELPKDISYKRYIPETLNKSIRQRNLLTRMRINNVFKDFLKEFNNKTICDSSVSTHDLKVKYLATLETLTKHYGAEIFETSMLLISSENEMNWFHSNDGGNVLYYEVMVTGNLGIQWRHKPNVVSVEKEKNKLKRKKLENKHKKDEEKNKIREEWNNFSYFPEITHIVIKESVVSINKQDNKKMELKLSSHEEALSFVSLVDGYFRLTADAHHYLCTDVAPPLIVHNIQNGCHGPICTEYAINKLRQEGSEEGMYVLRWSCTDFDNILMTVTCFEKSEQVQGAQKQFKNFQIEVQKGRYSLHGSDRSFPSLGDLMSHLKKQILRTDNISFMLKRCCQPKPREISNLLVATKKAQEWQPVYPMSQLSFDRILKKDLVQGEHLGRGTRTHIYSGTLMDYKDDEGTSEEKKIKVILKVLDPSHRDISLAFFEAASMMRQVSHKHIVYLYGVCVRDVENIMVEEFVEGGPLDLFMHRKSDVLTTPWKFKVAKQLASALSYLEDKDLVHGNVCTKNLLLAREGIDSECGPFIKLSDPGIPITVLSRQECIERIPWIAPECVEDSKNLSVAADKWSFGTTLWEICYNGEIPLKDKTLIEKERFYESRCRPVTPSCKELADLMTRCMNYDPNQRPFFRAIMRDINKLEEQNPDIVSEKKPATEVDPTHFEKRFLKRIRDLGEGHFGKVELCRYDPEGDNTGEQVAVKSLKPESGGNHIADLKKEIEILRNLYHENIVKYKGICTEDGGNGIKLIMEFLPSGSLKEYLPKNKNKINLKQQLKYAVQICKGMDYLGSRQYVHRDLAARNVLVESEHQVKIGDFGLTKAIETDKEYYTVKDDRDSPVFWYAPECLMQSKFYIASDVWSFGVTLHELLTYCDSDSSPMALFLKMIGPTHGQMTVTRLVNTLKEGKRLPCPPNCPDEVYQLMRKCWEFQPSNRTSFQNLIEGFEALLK
Protocol: as §1

Chain of JAK 2 (O60674 whole entry, canonical isoform): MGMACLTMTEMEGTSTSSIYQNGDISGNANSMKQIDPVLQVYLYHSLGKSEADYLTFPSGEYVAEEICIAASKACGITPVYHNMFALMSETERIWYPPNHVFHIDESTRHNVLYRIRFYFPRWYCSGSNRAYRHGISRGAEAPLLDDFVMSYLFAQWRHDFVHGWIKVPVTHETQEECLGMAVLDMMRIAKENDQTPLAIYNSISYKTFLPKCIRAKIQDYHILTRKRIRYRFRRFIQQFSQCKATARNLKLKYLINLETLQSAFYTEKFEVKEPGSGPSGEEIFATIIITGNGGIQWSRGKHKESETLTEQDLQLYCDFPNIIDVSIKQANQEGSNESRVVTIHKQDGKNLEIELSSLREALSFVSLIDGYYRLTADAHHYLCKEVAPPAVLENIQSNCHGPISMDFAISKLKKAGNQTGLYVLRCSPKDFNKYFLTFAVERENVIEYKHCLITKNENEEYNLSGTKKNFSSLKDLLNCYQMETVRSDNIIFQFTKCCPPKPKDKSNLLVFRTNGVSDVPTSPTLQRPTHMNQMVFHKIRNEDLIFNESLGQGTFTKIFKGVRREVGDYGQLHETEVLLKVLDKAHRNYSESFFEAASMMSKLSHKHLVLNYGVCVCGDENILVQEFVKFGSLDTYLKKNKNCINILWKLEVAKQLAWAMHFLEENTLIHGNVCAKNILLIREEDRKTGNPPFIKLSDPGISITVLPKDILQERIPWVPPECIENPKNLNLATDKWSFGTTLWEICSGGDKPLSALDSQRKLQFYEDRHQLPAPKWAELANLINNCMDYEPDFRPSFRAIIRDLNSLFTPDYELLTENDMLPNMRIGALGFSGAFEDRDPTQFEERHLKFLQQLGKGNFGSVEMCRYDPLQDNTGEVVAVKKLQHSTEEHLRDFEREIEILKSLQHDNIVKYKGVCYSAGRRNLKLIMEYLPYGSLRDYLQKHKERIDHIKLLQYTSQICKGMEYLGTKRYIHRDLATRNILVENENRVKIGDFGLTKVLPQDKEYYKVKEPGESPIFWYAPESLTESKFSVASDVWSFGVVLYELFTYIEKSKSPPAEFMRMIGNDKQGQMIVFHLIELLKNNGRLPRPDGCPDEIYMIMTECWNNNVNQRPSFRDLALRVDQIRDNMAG

Compound: CNC(=O)Nc1ccc(-n2nc(C)c3cnc(-c4cnn5cccnc45)cc32)c(OC)c1 [Example 18, 1-(3-methoxy-4-(3-methyl-6-(pyrazolo[1,5-a]pyrimidin-3-yl)-1H-pyrazolo[4,3-c]pyridin-1-yl)phenyl)-3-methylurea]
- IC50 (JAK 2): 5.01 to 50.1 nM
- IC50 (TYK2): > 50.1 nM
- IC50 (JAK 3): 5.01 to 50.1 nM
- IC50 (JAK 1): 5.01 to 50.1 nM

Compound: CNC(=O)c1ccc(-n2nc(C)c3cnc(-c4cnn5cccnc45)cc32)c(OC)c1 [Example 19, 3-methoxy-N-methyl-4-(3-methyl-6-(pyrazolo[1,5-a]pyrimidin-3-yl)-1H-pyrazolo[4,3-c]pyridin-1-yl)benzamide]
- IC50 (JAK 2): > 50.1 nM
- IC50 (TYK2): > 50.1 nM
- IC50 (JAK 3): > 50.1 nM
- IC50 (JAK 1): > 50.1 nM

Compound: COc1cc(C(=O)Nc2ccccc2)ccc1-n1nc(C)c2cnc(-c3cnn4cccnc34)cc21 [Example 20, 3-methoxy-4-(3-methyl-6-(pyrazolo[1,5-a]pyrimidin-3-yl)-1H-pyrazolo[4,3-c]pyridin-1-yl)-N-phenylbenzamide]
- IC50 (JAK 2): 5.01 to 50.1 nM
- IC50 (TYK2): > 50.1 nM
- IC50 (JAK 3): 5.01 to 50.1 nM
- IC50 (JAK 1): 5.01 to 50.1 nM

Compound: COc1cc(NS(C)(=O)=O)ccc1-n1nc(NCCCNC(=O)OC(C)(C)C)c2cnc(-c3cnn4cccnc34)cc21 [Example 21, tert-butyl (3-((1-(2-methoxy-4-(methylsulfonamido)phenyl)-6-(pyrazolo[1,5-a]pyrimidin-3-yl)-1H-pyrazolo[4,3-c]pyridin-3-yl)amino)propyl)carbamate]
- IC50 (JAK 2): ≤ 5.01 nM
- IC50 (TYK2): 5.01 to 50.1 nM
- IC50 (JAK 3): ≤ 5.01 nM
- IC50 (JAK 1): ≤ 5.01 nM

Compound: COc1cc(NS(C)(=O)=O)ccc1-n1nc(NCCCN(C)C)c2cnc(-c3cnn4cccnc34)cc21 [Example 22, N-(4-(3-((3-(dimethylamino)propyl)amino)-6-(pyrazolo[1,5-a]pyrimidin-3-yl)-1H-pyrazolo[4,3-c]pyridin-1-yl)-3-methoxyphenyl)methanesulfonamide]
- IC50 (JAK 2): ≤ 5.01 nM
- IC50 (TYK2): 5.01 to 50.1 nM
- IC50 (JAK 3): ≤ 5.01 nM
- IC50 (JAK 1): ≤ 5.01 nM

Compound: CNc1nn(-c2ccc(NS(C)(=O)=O)cc2OC)c2cc(-c3cnn4cccnc34)ncc12 [Example 23, N-(3-methoxy-4-(3-(methylamino)-6-(pyrazolo[1,5-a]pyrimidin-3-yl)-1H-pyrazolo[4,3-c]pyridin-1-yl)phenyl)methanesulfonamide]
- IC50 (JAK 2): ≤ 5.01 nM
- IC50 (TYK2): 5.01 to 50.1 nM
- IC50 (JAK 3): ≤ 5.01 nM
- IC50 (JAK 1): ≤ 5.01 nM

Compound: COc1cc(NS(C)(=O)=O)ccc1-n1nc(NCCN2CCOCC2)c2cnc(-c3cnn4cccnc34)cc21 [Example 24, N-(3-methoxy-4-(3-((2-morpholinoethyl)amino)-6-(pyrazolo[1,5-a]pyrimidin-3-yl)-1H-pyrazolo[4,3-c]pyridin-1-yl)phenyl)methanesulfonamide]
- IC50 (JAK 2): ≤ 5.01 nM
- IC50 (TYK2): 5.01 to 50.1 nM
- IC50 (JAK 3): ≤ 5.01 nM
- IC50 (JAK 1): ≤ 5.01 nM

Compound: O=S(=O)(Nc1ccc(-n2nc(NCCN3CCOCC3)c3cnc(-c4cnn5cccnc45)cc32)c(OC(F)F)c1)C1CC1 [Example 25, N-(3-(difluoromethoxy)-4-(3-((2-morpholinoethyl)amino)-6-(pyrazolo[1,5-a]pyrimidin-3-yl)-1H-pyrazolo[4,3-c]pyridin-1-yl)phenyl)cyclopropanesulfonamide]
- IC50 (JAK 2): 5.01 to 50.1 nM
- IC50 (TYK2): > 50.1 nM
- IC50 (JAK 3): ≤ 5.01 nM
- IC50 (JAK 1): 5.01 to 50.1 nM

Compound: COc1cc(NS(C)(=O)=O)ccc1-n1nc(NCCO)c2cnc(-c3cnn4cccnc34)cc21 [Example 26, N-(4-(3-((2-hydroxyethyl)amino)-6-(pyrazolo[1,5-a]pyrimidin-3-yl)-1H-pyrazolo[4,3-c]pyridin-1-yl)-3-methoxyphenyl)methanesulfonamide]
- IC50 (JAK 2): ≤ 5.01 nM
- IC50 (TYK2): 5.01 to 50.1 nM
- IC50 (JAK 3): ≤ 5.01 nM
- IC50 (JAK 1): ≤ 5.01 nM

Compound: COCCN1CCC(CNc2nn(-c3ccc(NS(C)(=O)=O)cc3OC)c3cc(-c4cnn5cccnc45)ncc23)CC1 [Example 27, N-(3-methoxy-4-(3-(((1-(2-methoxyethyl)piperidin-4-yl)methyl)amino)-6-(pyrazolo[1,5-a]pyrimidin-3-yl)-1H-pyrazolo[4,3-c]pyridin-1-yl)phenyl)methanesulfonamide]
- IC50 (JAK 2): ≤ 5.01 nM
- IC50 (TYK2): 5.01 to 50.1 nM
- IC50 (JAK 3): ≤ 5.01 nM
- IC50 (JAK 1): ≤ 5.01 nM

Compound: COc1cc(NS(=O)(=O)C2CC2)cnc1-n1nc(NCCN(C)C)c2cnc(-c3cnn4cccnc34)cc21 [Example 29, N-(6-(3-((2-(dimethylamino)ethyl)amino)-6-(pyrazolo[1,5-a]pyrimidin-3-yl)-1H-pyrazolo[4,3-c]pyridin-1-yl)-5-methoxypyridin-3-yl)cyclopropanesulfonamide]
- IC50 (JAK 2): 5.01 to 50.1 nM
- IC50 (TYK2): > 50.1 nM
- IC50 (JAK 3): 5.01 to 50.1 nM
- IC50 (JAK 1): 5.01 to 50.1 nM

Compound: COc1cc(NS(C)(=O)=O)ccc1-n1nc(NCCN2C3CCC2COC3)c2cnc(-c3cnn4cccnc34)cc21 [Example 30, N-(4-(3-((2-(3-oxa-8-azabicyclo[3.2.1]octan-8-yl)ethyl)amino)-6-(pyrazolo[1,5-a]pyrimidin-3-yl)-1H-pyrazolo[4,3-c]pyridin-1-yl)-3-methoxyphenyl)methanesulfonamide]
- IC50 (JAK 2): ≤ 5.01 nM
- IC50 (TYK2): 5.01 to 50.1 nM
- IC50 (JAK 3): ≤ 5.01 nM
- IC50 (JAK 1): ≤ 5.01 nM

Compound: COc1cc(NS(C)(=O)=O)ccc1-n1nc(NCCN(C)C)c2cnc(-c3cnn4cccnc34)cc21 [Example 31, N-(4-(3-((2-(dimethylamino)ethyl)amino)-6-(pyrazolo[1,5-a]pyrimidin-3-yl)-1H-pyrazolo[4,3-c]pyridin-1-yl)-3-methoxyphenyl)methanesulfonamide]
- IC50 (JAK 2): ≤ 5.01 nM
- IC50 (TYK2): 5.01 to 50.1 nM
- IC50 (JAK 3): ≤ 5.01 nM
- IC50 (JAK 1): ≤ 5.01 nM

Compound: COc1cc(NS(=O)(=O)C2CC2)ccc1-n1nc(NCCN(C)C)c2cnc(-c3cnn4cccnc34)cc21 [Example 32, N-(4-(3-((2-(dimethylamino)ethyl)amino)-6-(pyrazolo[1,5-a]pyrimidin-3-yl)-1H-pyrazolo[4,3-c]pyridin-1-yl)-3-methoxyphenyl)cyclopropanesulfonamide]
- IC50 (JAK 2): ≤ 5.01 nM
- IC50 (TYK2): 5.01 to 50.1 nM
- IC50 (JAK 3): 5.01 to 50.1 nM
- IC50 (JAK 1): 5.01 to 50.1 nM

Compound: COc1cc(NS(=O)(=O)C2CC2)ccc1-n1nc(NCCCN2CCOCC2)c2cnc(-c3cnn4cccnc34)cc21 [Example 33, N-(3-methoxy-4-(3-((3-morpholinopropyl)amino)-6-(pyrazolo[1,5-a]pyrimidin-3-yl)-1H-pyrazolo[4,3-c]pyridin-1-yl)phenyl)cyclopropanesulfonamide]
- IC50 (JAK 2): 5.01 to 50.1 nM
- IC50 (TYK2): 5.01 to 50.1 nM
- IC50 (JAK 3): 5.01 to 50.1 nM
- IC50 (JAK 1): 5.01 to 50.1 nM

Compound: COc1cc(NS(=O)(=O)C2CC2)ccc1-n1nc(NCCN2CCOCC2)c2cnc(-c3cnn4cccnc34)cc21 [Example 34, N-(3-methoxy-4-(3-((2-morpholinoethyl)amino)-6-(pyrazolo[1,5-a]pyrimidin-3-yl)-1H-pyrazolo[4,3-c]pyridin-1-yl)phenyl)cyclopropanesulfonamide]
- IC50 (JAK 2): 5.01 to 50.1 nM
- IC50 (TYK2): 5.01 to 50.1 nM
- IC50 (JAK 3): 5.01 to 50.1 nM
- IC50 (JAK 1): ≤ 5.01 nM

Compound: CNc1nn(-c2ccc(NS(=O)(=O)C3CC3)cc2OC)c2cc(-c3cnn4cccnc34)ncc12 [Example 35, N-(3-methoxy-4-(3-(methylamino)-6-(pyrazolo[1,5-a]pyrimidin-3-yl)-1H-pyrazolo[4,3-c]pyridin-1-yl)phenyl)cyclopropanesulfonamide]
- IC50 (JAK 2): ≤ 5.01 nM
- IC50 (TYK2): 5.01 to 50.1 nM
- IC50 (JAK 3): 5.01 to 50.1 nM
- IC50 (JAK 1): ≤ 5.01 nM

Compound: COc1cc(NS(=O)(=O)C2CC2)ccc1-n1nc(NCCN2CCCCC2)c2cnc(-c3cnn4cccnc34)cc21 [Example 36, N-(3-methoxy-4-(3-((2-(piperidin-1-yl)ethyl)amino)-6-(pyrazolo[1,5-a]pyrimidin-3-yl)-1H-pyrazolo[4,3-c]pyridin-1-yl)phenyl)cyclopropanesulfonamide]
- IC50 (JAK 2): 5.01 to 50.1 nM
- IC50 (TYK2): 5.01 to 50.1 nM
- IC50 (JAK 3): 5.01 to 50.1 nM
- IC50 (JAK 1): 5.01 to 50.1 nM
